Data as given in patent US20230073007A1, “SWITCHING BINDER, PREPARATION METHOD THEREFOR, AND PHARMACEUTICAL COMPOSITION, ASSAY KIT, AND ANTIGEN AND ANTIBODY ASSAY METHOD, EACH USING SAME” (OPTOLANE TECHNOLOGIES INC., priority 2019, published 2023).

What was measured:
[1] = tested on: anti-HRP antibody, anti-hCG antibody, anti-CRP antibody, anti-HBsAg antibody; assay: One-step immunoassay on solid support, release of switching binder on target antigen binding (FIGS. 8A to 8D); parameters: species or system rabbit, mouse, goat; details: after treatment with target antigen (HRP, hCG, CRP, HBsAg); 10 or 20 μM switching binder; fluorescence
Procedure: With reference to FIG. 8A, anti-HRP antibody was treated and fixed overnight on a solid support at a concentration of 1 μg/ml, and the switching binder 100 of SEQ ID NOs. 1 to 4 were each treated at a concentration of 10 μM (100 μl/well) for 2 hours. At this time, after measuring the fluorescence of the bottom, the antigen HRP as an analyte for an IgG antibody of rabbit was treated at a concentration of 10 μg/ml for 1 hour. With reference to FIG. 8B, anti-HCG antibody was treated and fixed overnight on a solid support at a concentration of 1 μg/ml, and the switching binder 100 of SEQ ID NOs. 1 to 4 were each treated at a concentration of 20 μM (100 μl/well) for 2 hours. At this time, after measuring the fluorescence of the bottom, the antigen HCG as an analyte for an IgG antibody of a mouse was treated at a concentration of 100 μg/ml for 2 hours.
With reference to FIG. 8C, anti-CRP antibody was treated and fixed overnight on a solid support at a concentration of 1 μg/ml, and the switching binder 100 of SEQ ID NOs. 1 to 4 were each treated at a concentration of 20 μM (100 μl/well) for 2 hours. At this time, after measuring the fluorescence of the bottom (A), the antigen […] as an analyte for an IgG antibody of rabbit was treated at a concentration of 10 μg/ml for 1 hour. […] At this time, after measuring the fluorescence of the bottom (A), the antigen HBsAg as an analyte for an IgG antibody of a goat was treated at a concentration of 10 μg/ml for 1 hour.
Referring to FIGS. 8A to 8D, the switching binder 100 was tested using the switching binder of SEQ ID NOs. […] The labeling reaction may be a fluorescence reaction. […]
Referring to FIGS. 8A to 8D, it can be seen that the remaining amount (B) of the switching binder 120 bound to the framework region (FR) was reduced compared to the amount (A) of the switching binder 110 bound to the antibody 10 in all of the switching binder of SEQ ID NO. […] In addition, it can be seen that the amount (C) of the switching binder 130 separated from the framework region (FR) is measured. […]
This is because the amount (A) of the switching binder 110 bound to the antibody 10 is the intensity of fluorescence observed on the surface of the support 30, but the amount (C) of the switching binder 130 separated from the framework region (FR) is the intensity of fluorescence observed in the solution phase. […] According to an embodiment of the present disclosure, as described above, it is possible to quantify the target antigen 20 by the difference between the amount of the switching binder 110 bound to the antibody 10 measured in the pretreatment step (S100) and the amount of the switching binder 120 in the remaining amount bound to the framework region (FR) in the assay step (S300). […]

[2] = tested on: anti-influenza B antibody; assay: Bead-based antibody binding one-step immunoassay (FIGS. 9A and 9B); details: influenza B versus CRP at 10 ng/mL; separated and remaining switching binder quantified
[3] = tested on: switching binder of SEQ ID NO. 1 (H1) / switching binder of SEQ ID NO. 4 (L2); assay: FRET test of mutual binding between switching binders H1 and L2 (FIG. 6E)
From the text: 1 (H1) and the switching binder of SEQ ID NO. 4 […]. Through this, it can be confirmed that the switching binder of SEQ ID NO. 1 (H1) can interact with the LBR region of the light chain (VL), and the switching binder of SEQ ID NO. 4 (L2) can interact with the HBR region of the heavy chain (VH). Through this property, the switching binder 100 binds to the framework region (FR), and thus the same effect as the interaction between the framework regions (FR) can be obtained.

anti-HRP antibody / HRP = assay: Antigen-binding coefficient of the antibody in solution measured via isolated switching binder (FIGS. 10A to 10D); details: target antigen HRP, anti-HRP antibody not immobilized; calculated from amount of isolated switching binder; read-out: antigen-binding coefficient (Kd) of the antibody in solution, measured using the switching binder
From the text: The pretreatment step (S100″) may include providing the switching binder 100 to an antibody 10 to obtain a mixed solution containing a first conjugate (b1) of the antibody 10 and the switching binder 100, and the switching binder 100 not bound to the antibody 10 (S110); and removing the switching binder 100 not bound to the antibody 10 from the mixed solution (S120). For example, the mixed solution passes through a desalting column to remove the unbound switching binder passing through the desalting column […], and only the first conjugate (b1) passing through the desalting column later can be obtained. The above-described method is exemplary, and various known techniques for separating the first conjugate and the switching binder 100 may be referred to.
Then, as the step of providing an analyte, in the antigen processing step (S200″), the step of separating the first conjugate (b1) from the framework regions (FR, FR) by binding the target antigen 20 to the antibody 10 may be performed. […]
Then, the assay step (S300″) may further include the steps of separating the second conjugate (b2) of the antibody 10 to which the switching binder 130 separated from the antibody 10 and the target antigen 20 are bound (S310); and quantifying the separated switching binder 130 (S320). […] Thereafter, only the separated switching binder 130 may be selectively obtained and quantified through a labeling reaction. At this time, as the concentration of the target antigen 20 increases, the amount of the switching binder 130 separated from the second conjugate (b2) increases, thereby increasing the fluorescence amount of the solution.
In an embodiment, in the assay step (S300″), a test kit that can measure the amount of the switching binder 130 separated according to the increase in the concentration of the target antigen 20 and measure the binding strength of the target antigen 20 to the antibody 10 can be provided. In order to measure the binding strength, the antigen-binding coefficient (Kd) of the antibody 10 may be measured. […]

[4] = tested on: switching binder of SEQ ID NO. 2 (H2) / switching binder of SEQ ID NO. 3 (L1); assay: FRET test of mutual binding between switching binders H2 and L1 (FIG. 5E)
From the text: 2 (H2) and the switching binder of SEQ ID NO. 3 (L1). Accordingly, it can be confirmed that the switching binder of SEQ ID NO. 2 […] can self-bind and interact with the LAR region of the light chain (VL), and the switching binder of SEQ ID NO. 3 (L1) can self-bind and interact with the HAR region of the heavy chain (VH). Through this, the switching binder 100 having an amino acid sequence extracted from the heavy chain (VH) can bind to the antigen-binding portion 15 including the framework region (FR) of the light chain (VL), and the switching binder 100 having an amino acid sequence extracted from the light chain (VL) can bind to the antigen-binding portion 15 including the framework region (FR) of the heavy chain (VH).

anti-HRP antibody = assay: SPR analysis of switching binder binding to immobilized antibody (FIG. 7B); details: 10 and 20 μM peptide
From the text: Referring to FIG. 7B, in an embodiment, a result of a surface plasmon resonance (SPR) analysis may be confirmed. Surface Plasmon Resonance (SPR) uses a phenomenon that when a material binds to the surface of a metal thin film such as gold, the refractive index of the metal surface changes. When the light is irradiated, the concentration of the material bound to the metal surface can be measured by examining the resonance angle at which the SPR phenomenon occurs among the reflected light.
Specifically, in order to confirm the SPR signal result, the gold surface was treated overnight with 1 mM mercaptoundecanoic acid (MUA) and surface-modified prior to immobilization of the antibody 10. Carbodiimide/N-Hydroxysuccinimide (EDC/NHS, 0.4 M/0.1 M) was mixed in a 1:1 ratio and treated for 10 minutes to activate functional groups. […] The SPR signal can be measured as an average value by repeating the routine of measuring the SPR signal for 3 minutes while the solution is stopped after flowing 1% Tween-20 washing solution for 1 minute three times.
However, the embodiment is not limited to the embodiment of the present disclosure and may include any method capable of measuring the binding strength of the switching binder 100. […] As a result of peptide treatment at a low concentration of 10 μM, shown in the graph on the left (B1), the SPR signal was calculated as the peptide of SEQ ID NO. […]

Row | Sequence | remaining amount (B) of switching binder bound to framework region compared to amount (A) bound to antibody [1] | bead-based one-step immunoassay feasibility [2] | FRET mutual binding between H1 and L2 [3] | Kd (anti-HRP antibody / HRP) [nM] | FRET mutual binding between H2 and L1 [4] | binding to the antibody by SPR (anti-HRP antibody)
1 | SYWIHWVKQRPGQGLEWIGE [H1, SYWIHWVKQRPGQGLEWIGE] | reduced | possible | mutual binding |  |  | 
2 | TYLEWYPQKPGQSPKLLIYK [L1, TYLEWYPQKPGQSPKLLIYK] | reduced | possible |  | 890 | mutual binding | 
3 | VYYCAREPTGTGIYFDVWGK [H2, VYYCAREPTGTGIYFDVWGK] | reduced |  |  | 2900 | mutual binding | 
4 | VYYCFQGSHVPFTK [L2, V-Y-Y-C-F-Q-G-S-H-V-P-F-T-K] | reduced |  | mutual binding | 1200 |  | binds the most
